Experimental data taken from PMC9586938, “Picomolar fluorescent probes for compound affinity determination to carbonic anhydrase IX expressed in live cancer cells” (Scientific Reports, 2022).
pKd: −log10 of the molar value.

Legend:
[1] = molecular target: T1, CAVII (Homo sapiens, UniProt P43166); assay: Thermal shift assay (TSA), recombinant CAVII; format: binding; conditions: 37 °C, pH 7.0, observed (not intrinsic)
T1 construct: made in house; host or cells: E. coli

[2] = molecular target: T2, recombinant human CAIX (Homo sapiens, UniProt Q16790); assay: Isothermal titration calorimetry (ITC) with recombinant CAIX; format: binding
T2 construct: Isozymes CAIX, CAXII, and CAXIV were the catalytic domains of the proteins; made in house; host or cells: mammalian cells
Procedure: (§1) The binding affinities of all fluorescein-containing compounds were determined for all 12 catalytically active CA isozymes by the thermal shift assay (TSA). […] However, the SFA technique cannot determine the affinities lower than the enzyme concentration used in the assay. […] In addition, we used isothermal titration calorimetry (ITC), the standard assay to determine affinity and enthalpy of protein–ligand binding. […] Therefore, ITC was used only to determine the enthalpy of interaction and confirm the ordering of compound affinities.
Affinities of several selected compounds to several human CA isozymes have been determined by ITC as described previously[43],[44]. The protein solution was placed in the cell of iTC200 titration calorimeter while the compound solution in identical buffer was placed in the syringe. After thermal equilibration, the compound solution was injected into the cell by identical injections. The heat produced during the reaction was measured by the calorimeter providing the shape of the curve that in turn yielded the enthalpy and the affinity Kd of the interaction.
Picomolar Fluorescent Probes for Compound Affinity Determination to Carbonic Anhydrase IX Expressed in Live Cancer Cells
Figure S1. […] The binding affinity of GZ19-32 was too high to be accurately measured by ITC due to the limitation related to the Wiseman parameter C. […]

[3] = molecular target: T3, CAIII (Homo sapiens, UniProt P07451); assay: Thermal shift assay (TSA), recombinant CAIII; format: binding; conditions: 37 °C, pH 7.0, observed (not intrinsic)
T3 construct: made in house; host or cells: E. coli
Procedure: as §1
(§2) All twelve catalytically active human CA isozymes were prepared recombinantly as previously described. Isozymes CAIX, CAXII, and CAXIV were the catalytic domains of the proteins[14],[38]. All isozymes were expressed in E. coli except CAIX that has been prepared in mammalian cells. The proteins were chromatographically purified on ion-exchange or benzene sulfonamide containing affinity columns. Protein MW was confirmed by mass spectrometry with 1 Da precision as predicted from gene sequence.
(§3) Compound affinities for the twelve catalytically active CA isozymes were determined by the thermal shift assay as previously described[30],[39]. Protein solutions containing 1,8-anilinonaphthalenesulfonate fluorescent probe were heated from 25 to 100 °C at a rate of one degree per minute while following the fluorescence of the probe. The temperature scanning curves provided the melting temperature Tm of the protein. The Tm has a distinct dependence on the concentration of a compound. Stronger binders shift the Tm to a greater extent than the weak binders. The Tm dependencies on compound concentration were fit to obtain the affinity Kd[40].

[4] = molecular target: T4, CAXII (Homo sapiens, UniProt O43570); assay: Thermal shift assay (TSA), recombinant CAXII; format: binding; conditions: 37 °C, pH 7.0, observed (not intrinsic)
T4 construct: Isozymes CAIX, CAXII, and CAXIV were the catalytic domains of the proteins; made in house; host or cells: E. coli
Procedure: as §1, §2, §3

[5] = molecular target: T5, CAXIII (Homo sapiens, UniProt Q8N1Q1); assay: Thermal shift assay (TSA), recombinant CAXIII; format: binding; conditions: 37 °C, pH 7.0, observed (not intrinsic)
T5 construct: made in house; host or cells: E. coli

[6] = molecular target: T6, catalytic domain of recombinant human CAIX (Homo sapiens, UniProt Q16790); assay: Thermal shift assay (TSA), recombinant CAIX catalytic domain; format: binding; conditions: for pKd: TSA, 37 °C, pH 7.0, observed (not intrinsic), read-out: Kd CAIX; for binding to CAIX by TSA (in words): recombinant CAIX
T6 construct: Isozymes CAIX, CAXII, and CAXIV were the catalytic domains of the proteins; made in house; host or cells: mammalian cells

[7] = molecular target: T7, CAIX on live HeLa cells (Homo sapiens, UniProt Q16790); assay: Fluorescence microscopy (widefield, SRRF/TIRF) of live HeLa cells stained with fluorescein-labeled compounds; format: cell-based; conditions: 10 nM; for staining of live HeLa cells grown under hypoxia: 5 min
T7 construct: recombinant CAIX and endogenous CAIX expressed on the cell surface; endogenous in cells; host or cells: HeLa (WT), grown under hypoxia (1% O2)

[8] = molecular target: T8, CAIV (Homo sapiens, UniProt P22748); assay: Thermal shift assay (TSA), recombinant CAIV; format: binding; conditions: 37 °C, pH 7.0, observed (not intrinsic)
T8 construct: made in house; host or cells: E. coli

[9] = molecular target: T9, CAI (Homo sapiens, UniProt P00915); assay: Thermal shift assay (TSA), recombinant CAI; format: binding; conditions: 37 °C, pH 7.0, observed (not intrinsic)
T9 construct: made in house; host or cells: E. coli
T9 sequence (P00915 whole entry): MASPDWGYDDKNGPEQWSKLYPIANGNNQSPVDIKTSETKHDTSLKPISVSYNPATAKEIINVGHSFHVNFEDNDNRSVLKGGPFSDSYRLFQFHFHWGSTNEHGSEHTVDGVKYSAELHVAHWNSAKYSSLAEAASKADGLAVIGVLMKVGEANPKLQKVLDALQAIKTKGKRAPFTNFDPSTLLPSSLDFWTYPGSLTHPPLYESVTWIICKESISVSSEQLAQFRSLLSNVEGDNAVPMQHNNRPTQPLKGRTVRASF

T5 sequence (Q8N1Q1 whole entry): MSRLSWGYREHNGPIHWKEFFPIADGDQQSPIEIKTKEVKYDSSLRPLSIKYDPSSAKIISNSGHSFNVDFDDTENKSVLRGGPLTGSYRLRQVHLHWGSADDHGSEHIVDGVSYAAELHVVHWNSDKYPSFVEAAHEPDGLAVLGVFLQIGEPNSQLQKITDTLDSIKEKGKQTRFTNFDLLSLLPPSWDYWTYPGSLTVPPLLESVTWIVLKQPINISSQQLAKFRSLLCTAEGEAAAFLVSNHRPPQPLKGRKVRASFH
T4 sequence (O43570 30-289 limits assumed): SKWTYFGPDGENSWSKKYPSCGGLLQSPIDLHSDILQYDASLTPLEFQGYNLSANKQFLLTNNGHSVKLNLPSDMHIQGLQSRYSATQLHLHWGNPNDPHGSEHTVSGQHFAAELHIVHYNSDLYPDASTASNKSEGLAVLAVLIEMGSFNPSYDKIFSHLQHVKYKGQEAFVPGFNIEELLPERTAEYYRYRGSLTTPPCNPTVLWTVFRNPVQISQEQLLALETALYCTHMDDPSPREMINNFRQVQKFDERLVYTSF
T3 sequence (P07451 whole entry): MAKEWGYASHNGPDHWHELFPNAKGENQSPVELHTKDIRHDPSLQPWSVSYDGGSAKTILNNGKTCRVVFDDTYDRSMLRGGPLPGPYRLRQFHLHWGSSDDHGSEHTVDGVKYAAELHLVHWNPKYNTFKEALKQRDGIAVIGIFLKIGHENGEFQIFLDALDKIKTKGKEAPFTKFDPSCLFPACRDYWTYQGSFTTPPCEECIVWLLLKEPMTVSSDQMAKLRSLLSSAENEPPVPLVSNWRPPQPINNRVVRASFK
T8 sequence (P22748 19-312): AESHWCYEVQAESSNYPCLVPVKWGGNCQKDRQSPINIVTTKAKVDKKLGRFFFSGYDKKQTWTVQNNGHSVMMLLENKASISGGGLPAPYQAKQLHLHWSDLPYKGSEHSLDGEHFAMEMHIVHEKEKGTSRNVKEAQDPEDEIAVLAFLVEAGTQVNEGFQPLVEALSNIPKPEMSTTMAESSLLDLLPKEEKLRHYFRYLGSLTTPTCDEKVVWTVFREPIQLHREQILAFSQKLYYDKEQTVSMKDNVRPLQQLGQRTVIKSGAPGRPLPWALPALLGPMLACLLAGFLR
T1 sequence (P43166 whole entry): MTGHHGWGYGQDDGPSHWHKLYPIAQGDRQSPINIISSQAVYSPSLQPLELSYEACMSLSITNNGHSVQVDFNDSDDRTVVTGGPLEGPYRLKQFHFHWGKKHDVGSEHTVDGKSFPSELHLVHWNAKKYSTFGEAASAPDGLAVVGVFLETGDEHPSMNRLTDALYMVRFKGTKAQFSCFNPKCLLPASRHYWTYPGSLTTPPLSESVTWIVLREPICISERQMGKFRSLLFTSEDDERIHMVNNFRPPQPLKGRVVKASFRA

Manders overlap coefficient M1, colocalization with H7 CAIX antibody ([7]; hypoxia-grown live HeLa cells) | Manders overlap coefficient M2, colocalization with H7 CAIX antibody ([7]; hypoxia-grown live HeLa cells) | object based spot collocalization with H7 CAIX antibody ([7]; hypoxia-grown live HeLa cells) | pixel based Person's correlation coefficient, colocalization with H7 CAIX antibody ([7]; hypoxia-grown live HeLa cells) | Pearson co-localization coefficient with CAXII-selective 1B10 antibody ([7]; hypoxia-grown live HeLa cells, SRRF/TIRF) | Molecule | pKd [1] | binding to CAIX by ITC (in words) [2] | pKd [3] | pKd [4] | pKd [5] | pKd [6] | binding to CAIX by TSA (in words) [6] | staining of live HeLa cells grown under hypoxia [7] | pKd [8] | pKd [9]
 |  |  |  |  | 3-((2-(cyclooctylamino)-3,5,6-trifluoro-4-(methylsulfonyl)phenyl)sulfonyl)-N-(3',6'-dihydroxy-3-oxo-3H-spiro[isobenzofuran-1,9'-xanthen]-5-yl)propanamide and 3-((3-(cyclooctylamino)-2,5,6-trifluoro-4-(methylsulfonyl)phenyl)sulfonyl)-N-(3',6'-dihydroxy-3-oxo-3H-spiro[isobenzofuran-1,9'-xanthen]-5-yl)propanamide [GZ20-37] | < 4.00 | did not show binding | < 4.00 | < 4.00 | < 4.00 | < 4.00 | did not show binding | did not bind | < 4.00 | < 4.00
0.82 | 0.65 | 0.75 | 0.82 | 0.02 | NS(=O)(=O)c1c(F)c(F)c(S(=O)(=O)CCC(=O)Nc2ccc3c(c2)C(=O)OC32c3ccc(O)cc3Oc3cc(O)ccc32)c(NC2CCCCCCC2)c1F [GZ19-32, 3-((2-(cyclooctylamino)-3,5,6-trifluoro-4-sulfamoylphenyl)sulfonyl)-N-(3',6'-dihydroxy-3-oxo-3H-spiro[isobenzofuran-1,9'-xanthen]-5-yl)propanamide] | 8.30 | too high to be accurately measured | 5.78 | 8.89 | 9.17 | 11.30 | high affinity for CAIX (pM range) | labeled the cell membrane | 7.00 | 6.30
